The target in test [1] is Recombinant human Cbl-b (aa 36-427) (Homo sapiens (Human), UniProt Q13191). Put plainly: Cbl-b Biochemical Assay (TR-FRET). To be noted: read-out: TR-FRET hCbl-b IC50. Put shortly: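 IC50 from 4-parameter fit of % inhibition (DMSO max, reference-inhibitor min), duplicate ten-point series. Compound preincubated with 6 nM Cbl-b, then Src-Zap70 (1-2.5 nM)/0.5 mM ATP reaction 60 min RT; EDTA quench with labelled UBE2D2-Ub and streptavidin-terbium, 60 min, HTRF at 520 nm.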

Test [2] relates to Jurkat (clone E6-1) cells, NFAT luciferase reporter. Briefly: Jurkat Reporter Assay (NFAT Luciferase). Type of test: cell-based. The conditions noted are these: Homo sapiens, anti-CD3 stimulation, 6 hr, read-out: Jurkat NFAT EC50.
For test [3], the target named is Recombinant human c-Cbl (aa 47-435) (Homo sapiens (Human), UniProt P22681). Put plainly: c-Cbl Biochemical Assay (TR-FRET). Put shortly: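 TR-FRET binding of UBE2D2-Ub-Bodipy (100 nM) to biotinylated c-Cbl (aa 47-435, 6 nM) via Streptavidin-Tb, measured after c-Cbl activation by Src-Zap70 with 0.5 mM ATP (60-90 min RT, 30 min compound preincubation). Ten-point half-log dilutions, 1% DMSO; IC50 by 4-parameter fit of normalized inhibition.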
Sequence of Recombinant human c-Cbl (aa 47-435) (P22681 47-435): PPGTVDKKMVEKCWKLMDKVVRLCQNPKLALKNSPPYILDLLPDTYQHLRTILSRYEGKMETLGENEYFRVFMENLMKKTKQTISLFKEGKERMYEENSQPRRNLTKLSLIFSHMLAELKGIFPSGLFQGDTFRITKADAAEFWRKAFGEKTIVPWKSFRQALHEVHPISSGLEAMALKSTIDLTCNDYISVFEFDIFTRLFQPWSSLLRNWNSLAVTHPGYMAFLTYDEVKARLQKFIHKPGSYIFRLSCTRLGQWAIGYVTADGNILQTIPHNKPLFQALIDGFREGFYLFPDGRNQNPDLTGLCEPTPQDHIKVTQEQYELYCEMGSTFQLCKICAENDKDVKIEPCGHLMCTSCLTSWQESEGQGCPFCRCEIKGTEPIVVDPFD

Each structure is given as a SMILES string. Some results are limits rather than exact numbers.

In general, IC50 refers to the concentration that gives 50% inhibition. Broadly, the EC50 is the midpoint of the concentration-response curve.

Sequence of Recombinant human Cbl-b (aa 36-427) (Q13191 36-427): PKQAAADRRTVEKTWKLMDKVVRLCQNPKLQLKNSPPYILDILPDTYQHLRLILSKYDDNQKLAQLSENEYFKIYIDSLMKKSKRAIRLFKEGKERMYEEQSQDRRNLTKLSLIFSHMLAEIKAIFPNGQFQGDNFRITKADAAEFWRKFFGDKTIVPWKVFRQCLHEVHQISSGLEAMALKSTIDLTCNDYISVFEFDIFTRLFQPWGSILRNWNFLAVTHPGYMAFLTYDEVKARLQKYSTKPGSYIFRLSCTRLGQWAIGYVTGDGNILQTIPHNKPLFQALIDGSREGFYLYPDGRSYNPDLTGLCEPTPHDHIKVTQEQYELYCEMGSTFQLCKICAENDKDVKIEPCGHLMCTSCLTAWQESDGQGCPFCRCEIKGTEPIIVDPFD

In the case of `Cn1cnnc1-c1ccccc1-c1cccc(N2Cc3c(cc(Br)cc3C(F)(F)F)C2=O)c1` [AY-1, 6-Bromo-2-(2′-(4-methyl-4H-1,2,4-triazol-3-yl)-[1,1′-biphenyl]-3-yl)-4-(trifluoromethyl)isoindolin-1-one], in test [1], the half-maximal inhibitory concentration (IC50) was in the range of 200 to 1000 nM. In test [2], the EC50 lay within 10000 to 50000 nM. In the case of `CCNc1cc(-c2c(-c3nncn3C)cnn2C)cc(N2Cc3c(cc(CNCCOCCOCCOCCNC(=O)CCc4ccc5n4[B-](F)(F)[N+]4=C(C)C=C(C)C4=C5)cc3C(F)(F)F)C2=O)n1` [ADD-2, 4-{2-[(1-{2-[6-(Ethylamino)-4-[2-methyl-4-(4-methyl-1,2,4-triazol-3-yl)pyrazol-3-yl]pyridin-2-yl]-3-oxo-7-(trifluoromethyl)-1H-isoindol-5-yl}-5,8,11-trioxa-2-azatridecan-13-yl)carbamoyl]ethyl}-2,2-difluoro-10,12-dimethyl-1lambda5,3-diaza-2-boratricyclo[7.3.0.0^{3,7}]dodeca-1(12),4,6,8,10-pentaen-1-ylium-2-uide], the IC50 in test [1] was in the range of 10000 to 50000 nM. Also, in test [2], the EC50 is 10000 to 50000 nM. Regarding `Cn1cnnc1-c1ccccc1-c1cccc(N2Cc3c(cc(COC4CCN(C(=O)OC(C)(C)C)CC4)cc3C(F)(F)F)C2=O)c1` [BB-1, tert-Butyl 4-((2-(2′-(4-methyl-4H-1,2,4-triazol-3-yl)-[1,1′-biphenyl]-3-yl)-3-oxo-7-(trifluoromethyl)isoindolin-5-yl)methoxy)piperidine-1-carboxylate], the IC50 in test [1] was 200 to 1000 nM. Also, in test [2], the EC50 lay in the range of 10000 to 50000 nM. For `Cn1cnnc1-c1cc(C#N)ccc1-c1cccc(N2Cc3c(cc(CO)cc3C(F)(F)F)C2=O)c1` [ADG-3, 3′-[6-(Hydroxymethyl)-1-oxo-4-(trifluoromethyl)-3H-isoindol-2-yl]-2-(4-methyl-1,2,4-triazol-3-yl)-[1,1′-biphenyl]-4-carbonitrile], in that order: no more than 200 nM and 10000 to 50000 nM. For `CCOc1cc(N2Cc3c(cccc3C(F)(F)F)C2=O)cc(C2(Cc3nncn3C)COC2)c1` [AHM-12, 2-(3-Ethoxy-5-[3-[(4-methyl-1,2,4-triazol-3-yl)methyl]oxetan-3-yl]phenyl)-4-(trifluoromethyl)-3H-isoindol-1-one] the same measures were 200 to 1000 nM and 1000 to 10000 nM. Regarding `CCNc1cc(-c2c(-c3nncn3C)cnn2C)cc(N2Cc3c(cc(COC4CCN(C)CC4)cc3C(F)(F)F)C2=O)n1` [ADA-2, 2-[6-(Ethylamino)-4-[2-methyl-4-(4-methyl-1,2,4-triazol-3-yl)pyrazol-3-yl]pyridin-2-yl]-6-{[(1-methylpiperidin-4-yl)oxy]methyl}-4-(trifluoromethyl)-3H-isoindol-1-one], in test [2], the concentration giving a half-maximal response (EC50) is 1000 to 10000 nM. Turning to `C[C@@H]1[C@@H](O)CCN1Cc1cc(F)c2c(c1)C(=O)N(c1cc(-c3ccc(C#N)cc3-c3nncn3C)cc(C3CC3)n1)C2` [ANC-2, 4-[2-Cyclopropyl-6-(4-fluoro-6-{[(2R,3S)-3-hydroxy-2-methylpyrrolidin-1-yl]methyl}-1-oxo-3H-isoindol-2-yl)pyridin-4-yl]-3-(4-methyl-1,2,4-triazol-3-yl)benzonitrile], the IC50 in test [1] and in test [3] was no more than 200 nM throughout. As for `C[C@@H](NCC1CCC1)c1ccc2c(c1)C(=O)N(c1cc(-c3ccc(C#N)cc3-c3nncn3C)cc(C3CC3)n1)C2` [AKA-1, (R)-4-(2-(6-(1-((Cyclobutylmethyl)amino)ethyl)-1-oxoisoindolin-2-yl)-6-cyclopropylpyridin-4-yl)-3-(4-methyl-4H-1,2,4-triazol-3-yl)benzonitrile], the IC50 in test [1] and in test [3] was no more than 200 nM throughout. Regarding `COc1cc2c(cc1CO)C(=O)N(c1cc(-c3ccc(C#N)cc3-c3nncn3C)cc(C3CC3)n1)C2` [AKL-2, 4-{2-Cyclopropyl-6-[6-(hydroxymethyl)-5-methoxy-1-oxo-3H-isoindol-2-yl]pyridin-4-yl}-3-(4-methyl-1,2,4-triazol-3-yl)benzonitrile], the IC50 in test [1] and in test [3] was no more than 200 nM in each case. Turning to `CCOc1cc(-c2ccc(F)cc2-c2nncn2C)cc(N2Cc3c(OC)cc(CNCC4(O)CCC4)cc3C2=O)n1` [AIJ-2, 2-{6-Ethoxy-4-[4-fluoro-2-(4-methyl-1,2,4-triazol-3-yl)phenyl]pyridin-2-yl}-6-({[(1-hydroxycyclobutyl)methyl]amino}methyl)-4-methoxy-3H-isoindol-1-one], the IC50 in test [1] and in test [3] was no more than 200 nM throughout.

On to `CO[C@H](C)CNCc1cc(F)c2c(c1)C(=O)N(c1cc(-c3ccc(C#N)cc3-c3nncn3C)cc(C3CC3)n1)C2` [AKV-1, 4-{2-Cyclopropyl-6-[4-fluoro-6-({[(2R)-2-methoxypropyl]amino}methyl)-1-oxo-3H-isoindol-2-yl]pyridin-4-yl}-3-(4-methyl-1,2,4-triazol-3-yl)benzonitrile], for which the concentration for half-maximal inhibition (IC50) in test [1] and in test [3] was no more than 200 nM each time.

As for `CN(Cc1ccc2c(c1)C(=O)N(c1cc(-c3ccc(C#N)cc3-c3nncn3C)cc(C3CC3)n1)C2)CC1CCC1` [AMF-1, 4-[2-(6-{[(cyclobutylmethyl)(methyl)amino]methyl}-1-oxo-3H-isoindol-2-yl)-6-cyclopropylpyridin-4-yl]-3-(4-methyl-1,2,4-triazol-3-yl)benzonitrile], the IC50 in test [1] and in test [3] was no more than 200 nM each time. With `CNCCNCc1ccc2c(c1)C(=O)N(c1cc(-c3ccc(C#N)cc3-c3nncn3C)cc(C3CC3)n1)C2` [ALZ-3, 4-{2-Cyclopropyl-6-[6-({[2-(methylamino)ethyl]amino}methyl)-1-oxo-3H-isoindol-2-yl]pyridin-4-yl}-3-(4-methyl-1,2,4-triazol-3-yl)benzonitrile], the concentration for half-maximal inhibition (IC50) in test [1] and in test [3] was no more than 200 nM in each case. On to `Cn1cnnc1-c1cc(C#N)ccc1-c1cc(C2CC2)nc(N2Cc3ccc(OC[C@@H](O)CO)cc3C2=O)c1` [AJM-3, (S)-4-(2-Cyclopropyl-6-(6-(2,3-dihydroxypropoxy)-1-oxoisoindolin-2-yl)pyridin-4-yl)-3-(4-methyl-4H-1,2,4-triazol-3-yl)benzonitrile], for which the half-maximal inhibitory concentration (IC50) in test [1] and in test [3] was no more than 200 nM in each case. `COC[C@H](C)NCc1ccc2c(c1)C(=O)N(c1cc(-c3ccc(C#N)cc3-c3nncn3C)cc(C3CC3)n1)C2` [AIR-2, (S)-4-(2-cyclopropyl-6-(6-(((1-methoxypropan-2-yl)amino)methyl)-1-oxoisoindolin-2-yl)pyridin-4-yl)-3-(4-methyl-4H-1,2,4-triazol-3-yl)benzonitrile]: the half-maximal inhibitory concentration (IC50) in test [1] and in test [3] was no more than 200 nM in each case. On to `COCCN(C)Cc1cc2c(c(F)c1F)CN(c1cc(-c3ccc(C#N)cc3-c3nncn3C)cc(C3CC3)n1)C2=O` [AMZ-3, 4-[2-Cyclopropyl-6-(4,5-difluoro-6-{[(2-methoxyethyl)(methyl)amino]methyl}-1-oxo-3H-isoindol-2-yl)pyridin-4-yl]-3-(4-methyl-1,2,4-triazol-3-yl)benzonitrile], for which the IC50 in test [1] and in test [3] was no more than 200 nM each time. As to `COC[C@H]1CCCN1Cc1cc(F)c2c(c1)C(=O)N(c1cc(-c3ccc(C#N)cc3-c3nncn3C)cc(C3CC3)n1)C2` [APB-2, 4-[2-Cyclopropyl-6-(4-fluoro-6-{[(2R)-2-(methoxymethyl)pyrrolidin-1-yl]methyl}-1-oxo-3H-isoindol-2-yl)pyridin-4-yl]-3-(4-methyl-1,2,4-triazol-3-yl)benzonitrile], the IC50 in test [1] and in test [3] was no more than 200 nM in each case. `CCOc1cc(-c2ccc(F)cc2-c2nncn2C)cc(N2Cc3c(OC)cc(CO)cc3C2=O)n1` [AJC-1, 2-(6-Ethoxy-4-(4-fluoro-2-(4-methyl-4H-1,2,4-triazol-3-yl)phenyl)pyridin-2-yl)-6-(hydroxymethyl)-4-methoxyisoindolin-1-one]: the IC50 in test [1] and in test [3] was no more than 200 nM each time. Consider `COCCNCc1cc(Br)c2c(c1)C(=O)N(c1cc(-c3ccc(C#N)cc3-c3nncn3C)cc(C3CC3)n1)C2` [ALB-2, 4-[2-(4-Bromo-6-{[(2-methoxyethyl)amino]methyl}-1-oxo-3H-isoindol-2-yl)-6-cyclopropylpyridin-4-yl]-3-(4-methyl-1,2,4-triazol-3-yl)benzonitrile], for which the half-inhibitory concentration (IC50) in test [1] and in test [3] was no more than 200 nM throughout. On to `COC[C@H](C)NCc1cc(F)c2c(c1)C(=O)N(c1cc(-c3ccc(C#N)cc3-c3nncn3C)cc(C3CC3)n1)C2` [AKG-1, 4-{2-Cyclopropyl-6-[4-fluoro-6-({[(2S)-1-methoxypropan-2-yl]amino}methyl)-1-oxo-3H-isoindol-2-yl]pyridin-4-yl}-3-(4-methyl-1,2,4-triazol-3-yl)benzonitrile], for which the half-maximal inhibitory concentration (IC50) in test [1] and in test [3] was no more than 200 nM each time. Take `CN(Cc1ccc2c(c1)C(=O)N(c1cc(-c3ccc(C#N)cc3-c3nncn3C)cc(C3CC3)n1)C2)CC1(O)CCC1` [AKP-1, 4-{2-Cyclopropyl-6-[6-({[(1-hydroxycyclobutyl)methyl](methyl)amino}methyl)-1-oxo-3H-isoindol-2-yl]pyridin-4-yl}-3-(4-methyl-1,2,4-triazol-3-yl)benzonitrile]: the IC50 in test [1] and in test [3] was no more than 200 nM in each case. For `Cn1cnnc1-c1cc(C#N)ccc1-c1cc(C2CC2)nc(N2Cc3ccc(CNCC45CC(C4)C5)cc3C2=O)c1` [AKD-2, 4-(2-{6-[({Bicyclo[1.1.1]pentan-1-ylmethyl}amino)methyl]-1-oxo-3H-isoindol-2-yl}-6-cyclopropylpyridin-4-yl)-3-(4-methyl-1,2,4-triazol-3-yl)benzonitrile], the IC50 in test [1] and in test [3] was no more than 200 nM in each case.

Source of the values: US12325697B2 (Nimbus Clio, Inc., priority 2021, dated 2025).
